Measured values published in PubChem BioAssay (NCI).
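Method: 48-hour compound exposure of cells in 96-well plates, five concentrations, linear interpolation of endpoints. TGI: total growth inhibition.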

Columns and labels:
Assay in all cases: inhibition of tumour cell growth, NCI panel, 48 h
T-47D breast = system: T-47D breast
ACHN renal = system: ACHN renal
SR leukemia = system: SR leukemia
SF-268 CNS = system: SF-268 CNS
OVCAR-4 ovarian = system: OVCAR-4 ovarian
UACC-257 melanoma = system: UACC-257 melanoma
786-0 renal = system: 786-0 renal
LOX IMVI melanoma = system: LOX IMVI melanoma
SK-MEL-2 melanoma = system: SK-MEL-2 melanoma
KM12 colon = system: KM12 colon
OVCAR-8 ovarian = system: OVCAR-8 ovarian
COLO 205 colon = system: COLO 205 colon
SNB-75 CNS = system: SNB-75 CNS
MOLT-4 leukemia = system: MOLT-4 leukemia
UACC-62 melanoma = system: UACC-62 melanoma
HT29 colon = system: HT29 colon
NCI/ADR-RES ovarian = system: NCI/ADR-RES ovarian
IGROV1 ovarian = system: IGROV1 ovarian

Structure (SMILES) | TGI (T-47D breast) | TGI (ACHN renal) | TGI (SR leukemia) | TGI (SF-268 CNS) | TGI (OVCAR-4 ovarian) | TGI (UACC-257 melanoma) | TGI (786-0 renal) | TGI (LOX IMVI melanoma) | TGI (SK-MEL-2 melanoma) | TGI (KM12 colon) | TGI (OVCAR-8 ovarian) | TGI (COLO 205 colon) | TGI (SNB-75 CNS) | TGI (MOLT-4 leukemia) | TGI (UACC-62 melanoma) | TGI (HT29 colon) | TGI (NCI/ADR-RES ovarian) | TGI (IGROV1 ovarian)
CCN(CC)CCCNc1nc2ccccc2c2[nH]c3ccc(OC)cc3c12 | > 10 µM | > 10 µM | 5.95 µM | 4.43 µM | 2.64 µM | 3.2 µM | 2.41 µM | 2.9 µM | 3.16 µM | 2.03 µM | 2.41 µM | 2.59 µM | 3.35 µM | 1.69 µM | > 10 µM | 2.05 µM | 2.92 µM | 3.72 µM
CN(C)c1ccc(/C=C(\NC(=O)c2ccccc2)C2NC(Cc3c[nH]c4ccccc34)C(=O)O2)cc1 (stereo unspecified) | > 100 µM | > 100 µM | > 100 µM | > 100 µM | > 100 µM | > 100 µM | > 100 µM | > 54.3 µM | > 100 µM | > 100 µM | > 100 µM | > 39.3 µM | > 100 µM | > 100 µM | > 100 µM | > 100 µM | > 100 µM | > 100 µM
CC(C)NC(=O)OCc1c(COC(=O)NC(C)C)n(C)c2c1ccc1ccccc12 | 1.48 µM | 2.82 µM | > 100 µM | 6.2 µM | 9.19 µM | 2.99 µM | 2.5 µM | 2.6 µM | 4.09 µM | 15.5 µM | 4.5 µM | 3.83 µM | 7.11 µM | > 25.4 µM | 2.92 µM | 13 µM | 7.39 µM | 3.23 µM
NCCCN1CCN(CC(=O)O)CCN(CCCN)CCN(CC(=O)O)CC1 | > 100 µM | > 100 µM | > 100 µM | > 100 µM | > 100 µM | > 100 µM | > 85.3 µM | > 100 µM | > 76.1 µM | > 100 µM | > 100 µM | > 100 µM | > 100 µM | > 100 µM | > 100 µM | > 100 µM | > 100 µM | > 100 µM
CC1(C)CN=C(Nc2cccc(C(F)(F)F)c2)S1 | > 100 µM | > 100 µM | > 100 µM | > 100 µM | > 100 µM | > 100 µM | > 100 µM | > 100 µM | > 100 µM | > 100 µM | > 100 µM | > 100 µM | > 100 µM | > 100 µM | > 100 µM | > 100 µM | > 100 µM | > 100 µM
O=C(CCCl)NNC1=NCCN1 | > 100 µM | > 100 µM | > 100 µM | > 100 µM | > 100 µM | > 100 µM | > 100 µM | > 100 µM | > 100 µM | > 100 µM | > 100 µM | > 100 µM | > 100 µM | > 100 µM | > 100 µM | > 100 µM | > 100 µM | > 100 µM
CCOC(=O)NC(NC(C)CC)(C(F)(F)F)C(F)(F)F (stereo unspecified) | > 100 µM | > 100 µM | > 100 µM | > 100 µM | > 100 µM | > 100 µM | > 100 µM | > 100 µM | > 100 µM | > 100 µM | > 100 µM | > 100 µM | > 100 µM | > 100 µM | > 100 µM | > 100 µM | > 100 µM | > 100 µM
O=C(OC(=C(c1ccccc1)c1ccccc1)N1CCCC1=S)C(c1ccccc1)c1ccccc1 | > 10 µM | > 10 µM | > 10 µM | > 10 µM | > 10 µM | > 10 µM | > 10 µM | > 10 µM | > 10 µM | > 10 µM | > 10 µM | 5.5 µM | > 10 µM | > 10 µM | > 10 µM | > 10 µM | > 10 µM | > 10 µM
OC1CN2CCS[C@H]2C(O)C1O (stereo partly specified) | > 100 µM | > 100 µM | > 100 µM | > 100 µM | > 100 µM | > 100 µM | > 100 µM | > 100 µM | > 100 µM | > 100 µM | > 100 µM | > 100 µM | > 100 µM | > 100 µM | > 100 µM | > 100 µM | > 100 µM | > 100 µM
CN(C)c1nc(-c2ccccc2)c(C(=O)c2c[nH]c3ccccc23)s1 | > 100 µM | > 100 µM | > 100 µM | > 100 µM | > 100 µM | > 100 µM | > 47.6 µM | > 100 µM | > 100 µM | > 100 µM | > 100 µM | > 100 µM | 7.71 µM | > 82.6 µM | > 100 µM | > 100 µM | > 100 µM | > 44.7 µM
Cn1c2ccccc2c(=NNc2ccccc2C(=O)O)c2ccccc21 | 88.3 µM | 48.2 µM | 44.6 µM | 56.3 µM | 44.9 µM | 51.5 µM | > 100 µM | 25.6 µM | 43.7 µM | 42.2 µM | 66.2 µM | 34.1 µM | 67 µM | > 100 µM | 54 µM | 38.1 µM | 60.8 µM | 94.3 µM
O=C1C=C(NCCc2cc(Br)c(O)c(Br)c2)C(=O)c2ncccc21 | 43.4 µM | 22 µM | 7.31 µM | 21.9 µM | 11.3 µM | 2.92 µM | 13.6 µM | 4.97 µM | 4.1 µM | 23.4 µM | 27.3 µM | 3.25 µM | 3.13 µM | 21.9 µM | 2.93 µM | 7.36 µM | 27.5 µM | 6.31 µM
